The source of these data is article PMC4195671, “Luteolin Suppresses Cancer Cell Proliferation by Targeting Vaccinia-Related Kinase 1” (PLoS ONE, 2014).

In assay [1] the target is T1, Vaccinia-related kinase 1 (VRK1) (Homo sapiens, UniProt Q99986). The experiment in a line: biochemical. The class given is binding.
Assay [2] concerns the target T1, Vaccinia-related kinase 1 (VRK1). The experiment in a line: biochemical. The class given is binding. This is another data set of the same source.

Where two headings read alike, the source gives them in different places.

T1 sequence (Q99986 whole entry): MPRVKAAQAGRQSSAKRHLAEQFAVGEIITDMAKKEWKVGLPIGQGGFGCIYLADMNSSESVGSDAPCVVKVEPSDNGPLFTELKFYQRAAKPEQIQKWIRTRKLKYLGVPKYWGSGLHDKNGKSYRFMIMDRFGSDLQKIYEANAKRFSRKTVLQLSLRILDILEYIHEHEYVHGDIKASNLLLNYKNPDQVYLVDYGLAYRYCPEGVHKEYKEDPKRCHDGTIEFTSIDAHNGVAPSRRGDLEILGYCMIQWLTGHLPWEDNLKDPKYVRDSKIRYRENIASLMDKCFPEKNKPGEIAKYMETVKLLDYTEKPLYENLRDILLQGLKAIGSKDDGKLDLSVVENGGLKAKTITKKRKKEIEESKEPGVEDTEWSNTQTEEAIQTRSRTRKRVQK

In the case of `COc1ccc(-c2cc(=O)c3c(O)c(OC)c(O)cc3o2)cc1OC` [eupatilin], the Kd – broadly, the free concentration of one partner at which half of the binding sites on the other are occupied at equilibrium, for simple one-to-one binding – in assay [1] worked out at 184 µM.

In assay [2], `O=c1cc(-c2ccc(O)c(O)c2)oc2cc(O)cc(O)c12` [luteolin, 3′,4′,5,7-tetrahydroxyflavone] had a Kd of 5.8 µM.

As to `COc1c(O)cc(O)c2c(=O)cc(-c3ccccc3)oc12` [wogonin], binding in assay [1] was put at a Kd of 120 µM.
